Measurements from US20180140679A1, “MODULATION OF AXL RECEPTOR ACTIVITY IN COMBINATION WITH CYTOREDUCTIVE THERAPY” (THE BOARD OF TRUSTEES OF THE LELAND STANFORD JUNIOR …, priority 2016, published 2018).

Columns and labels:
[1] = tested on: phosphorylation of Axl, Mer, Tyro3, and downstream Akt signaling in OVCAR8 cells; test: Western blot of TAM receptor and Akt phosphorylation in OVCAR8 cells; assay type: cell-based, human
Description: (§1) Cell lysates subjected to sodium dodecyl sulfate polyacrylamide gel electrophoresis followed by transfer to nitrocellulose membrane. The membranes were then probed with primary antibodies against total Axl (AF154, R&D Systems, INC., Minneapolis, Minn.), phospho-Axl (T702; #5724, CST, Danvers, Mass.), total Akt (#4691 CST, Danvers, Mass.), phosphor-Akt (#4060, CST, Danvers, Mass.), anti-MERTK (#ab52968, Abcam, Cambridge, Mass.), phospho-MERTK (#ab14921 Abcam, Cambridge, Mass.), anti-Tyro3 (#5585, CST, Danvers, Mass.), phospho-Tyro3 (#orb186274, Biorbyt LLC, Berkely, Calif.), Bcl-2 Family Antibody Sampler Kit (#9934, CST, Danvers, Mass.), anti-Chk2 (#sc-5278, Santa Cruz Biotech, INC., Santa Cruz, Calif.), anti-XRCC1 (#2735, CST, Danvers, Mass.), anti-γH2AX (Merck Millipore #05636, Darmstadt, Germany), anti-phospho-ATM (#ab81292, Abcam, Cambridge, Mass.), anti-ATM (#ab78, Abcam, Cambridge, Mass.), anti phospho-ATR (#2853, CST, Danvers, Mass.), anti-ATR (#2790, CST, Danvers, Mass.), anti-Phospho Chk1 (#12302, CST, Danvers, Mass.), anti-Phospho Chk2 (#2197, CST, Danvers, Mass.) and anti-RPA32 (#2208, CST, Danvers, Mass.) at 4° C. overnight. The blots were then washed and probed with HRP conjugated anti-goat (#sc-2020, Santa Cruz Biotech, INC., Santa Cruz, Calif.), or HRP conjugated anti-rabbit (#A16110, Thermo Fisher Scientific, Walthan, Mass.) as appropriate. The blots were developed with Bio-Rad Western C developing reagent (#170-5060 Bio-Rad, Hercules, Calif.) and visualized with Chemidoc digital imager (#1708280, Bio-Rad, Hercules, Calif.).

4T1 luciferase cells = assay type: in vivo
Description: In this model, cells orthotopically implanted in the mammary fat pad generate primary masses that metastasize to the lungs.
Comparison of MYD1-72 Fc with clinical Axl. TKIs There are currently no FDA approved drugs targeting Axl, though several small molecule kinase inhibitors are undergoing clinical trials. BerGenBio's BGB324 (previously Rigel's R428) is the most advanced of these compounds, and the first to be developed prospectively as an Axl inhibitor. […] Furthermore, since TKI's and biologics are fundamentally very different, as are their mechanisms of action, a direct comparison would provide valuable insights into the potential of distinct therapeutic intervention strategies. […] Cells were implanted orthotopically in the mammary fat pad, and primary tumors were allowed to establish prior to treatment. […] This dose for the TKIs was chosen as significant activity has been previously reported at equivalent concentrations.
(§2) Treatment was initiated four days post-surgery.

ovarian cancer cells [2] = test: EdU labeling and γH2AX co-staining; assay type: cell-based
Description: (§3) 10,000 cells were plated in each well of glass chamber slide and allowed to attach overnight. […] Cells were then washed with PBS and fixed with 4% paraformaldehyde, lysed for 10 minutes and blocked with a 2% BSA and 0.1% PBS-Triton-X solution for 1 hour. After washes in PBS-Triton-X, cells were incubated with mouse anti-[…]H2AX, (#05-636, Merck Millipore, Darmstadt, Germany); rabbit anti-RAD51, (#PC130-100 UL Merck Millipore, Darmstadt, Germany); rabbit anti-53BP1, (# ab36823, Abcam, Cambridge, Mass.) overnight in a humidified chamber at 4 degrees. Cells were washed with PBS and incubated in secondary antibody anti-rabbit FITC (#65-6111 Thermo Fisher Scientific, Walthan, Mass. or anti-mouse FITC, (#62-6511, Thermo Fisher Scientific, Walthan, Mass.) for 1 hour at 37 degrees and counterstained with Prolong Mounting medium with DAPI. Positive foci intensity were calculated using imagine software Metamorph. EdU (5-ethynyl-2′-deoxyuridine) labeling and co-staining were carried out according to the manufacturer's instructions (#C10637, Thermo Fisher Scientific, Walthan, Mass.). γH2AX staining was performed as described above.
(§4) Cells were visualized using a Leica DM6000 B microscope with Leica Application Suite X software (Wetzlar, Germany). EdU was used at a concentration of 10 μM. EdU labeling was carried out for 1 hour in all cases, for conditions including drug treatments EdU was added during the last hour of treatment. Experiments were carried out in triplicate. Quantification of staining: Positive γH2AX staining refers to cells with over eight foci and pan-nuclear staining. For hydroxyurea (Hu) treated groups, γH2AX positive cells refers to cells where a pan-nuclear staining pattern (typically associated with replication stress) was observed.

wild-type cell lines = test: Reverse phase protein array (RPPA); assay type: cell-based; conditions: continuously for seven days in low serum (1% FBS)
Description: (§5) To further understand this relationship, we performed a reverse phase protein array (RPPA) on shAxl cell lines and wild-type cell lines treated with MYD1-72 Fc. […] In addition, we performed western blot analysis to examine expression levels of classical DNA damage response components, including total and phosphorylated ATM, ATR, CHK1, CHK2 and RPA32 (FIG. 5B) at four time points post MYD1-72 treatment.
The RPPA was performed by MD Anderson as described.

[3] = tested on: ATM, ATR, CHK1, CHK2 and RPA32 in ovarian cancer cells; test: Western blot of DNA damage response components in ovarian cancer cells; assay type: cell-based; conditions: low serum (0.1% FBS)
Description: as §5, §1

ovarian cancer cells [4] = test: Immunofluorescence of DNA damage foci in ovarian cancer cells; assay type: cell-based
Description: as §3, §4

[5] = tested on: LM-P orthotopic pancreatic cancer; test: LM-P orthotopic pancreatic cancer model; conditions: immunohistochemistry
Description: LMP cells derived from the KRAS/p53 metastatic mouse model were implanted subcutaneously into the flanks of mice and allowed to grow until they reached ˜500 mm^3 in size.
To establish orthotopic tumors, mice harboring subcutaneous tumors were sacrificed and tumors were isolated and cut into small fragments. Laparotomies were then performed and a tumor fragment was secured to the tail of the pancreas.
All procedures involving animals and their care and use were approved by the Institutional Animal Care and Usage Committee of Stanford University. For all in vivo studies, six week old, female nude (nu/nu) mice (Jackson Laboratory, Bar Harbor, Me.) were used. In all studies, animals displaying signs of morbidity were removed from the study immediately. […] Treatment was initiated four days post-inoculation for both studies. […] BGB324 (Selleckchem LLC, Houston, Tex.) and Foretinib (MedChem, Monmouth Junction, N.J.). Small molecules were administered twice daily via oral gavage. […] The orthotropic LM-P pancreatic adenocarcinoma model (a gift from Dr. Edgar Engleman at Stanford University, Stanford, Calif.) was established as previously described. Briefly, 1×10^6 cells were injected subcutaneously into the flanks of nude mice and grown for 2-3 weeks until they reached 500 mm^3. […]

[6] = tested on: Axl and FLT3 phosphorylation in AML cells; test: Western blot of Axl and FLT3 phosphorylation in AML cells; assay type: cell-based, human
Description: as §1

OVCAR8 = OVCAR8 intraperitoneal ovarian cancer model; assay type: in vivo, mouse; conditions: MYD1-72 Fc 1 mg/kg daily, doxorubicin 2 mg/kg twice weekly, three weeks
Description: (§6) At this time, several mice were sacrificed at random to ensure engraftment of diffuse metastatic disease, a hallmark of the human condition. […] After three weeks of treatment, mice were sacrificed and tumor burden was quantified both by counting the number of visible lesions, as well as excising and weighing all diseased tissue.
as §2

skov3.ip = skov3.ip intraperitoneal ovarian cancer model; assay type: in vivo, mouse xenograft; conditions: MYD1-72 Fc 1 mg/kg daily, doxorubicin 2 mg/kg twice weekly, three weeks
Description: as §6, §2

mouse Gas6 = molecular target: T1, mouse Gas6 (Mus musculus, UniProt Q61592); test: Kinetic Exclusion Assay (KinExA), Gas6-Axl binding, mouse Gas6
T1 sequence (Q61592 28-674): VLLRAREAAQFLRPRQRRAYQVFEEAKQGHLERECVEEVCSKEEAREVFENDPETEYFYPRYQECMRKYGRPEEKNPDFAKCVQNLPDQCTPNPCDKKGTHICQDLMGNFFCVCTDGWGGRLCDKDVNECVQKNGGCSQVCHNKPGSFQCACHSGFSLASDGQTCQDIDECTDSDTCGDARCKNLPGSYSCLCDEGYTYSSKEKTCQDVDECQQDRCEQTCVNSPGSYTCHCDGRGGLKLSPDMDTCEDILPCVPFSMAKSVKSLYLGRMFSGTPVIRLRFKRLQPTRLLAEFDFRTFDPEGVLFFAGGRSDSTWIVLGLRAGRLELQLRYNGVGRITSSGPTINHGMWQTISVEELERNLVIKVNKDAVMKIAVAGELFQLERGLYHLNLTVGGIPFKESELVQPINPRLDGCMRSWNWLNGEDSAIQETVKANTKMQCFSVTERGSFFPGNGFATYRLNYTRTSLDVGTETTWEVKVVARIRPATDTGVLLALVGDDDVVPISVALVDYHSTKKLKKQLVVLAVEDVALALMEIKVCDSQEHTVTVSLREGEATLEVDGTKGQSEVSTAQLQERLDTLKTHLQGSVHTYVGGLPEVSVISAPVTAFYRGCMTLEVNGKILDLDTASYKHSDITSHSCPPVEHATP
Description: (§7) Equilibrium binding and association rate constants for all Gas6-Axl interactions were measured on a KinExA3200 instrument (Sapidyne Instruments Inc. Boise, Id.) as previously described. For equilibrium binding studies, three independent titrations were completed for each Axl Ig1 or Axl Fc fusion unless otherwise noted. […] After the appropriate incubation time, reactions were flowed over MYD1 Fc coated beads and captured free Gas6 was probed using an anti-6×HIS Dylight 649 antibody (#200-343-382, Rockland Immunochemicals Inc., Pottstown, Pa.). Each sample was measured twice and data from the three independent equilibrium binding experiments were globally analyzed using n-curve analysis in the KinExA Pro 3.6.2 software (Sapidyne Instruments Inc. Boise, Id.) to obtain the Kd value. To analyze the association rate of the interactions, the direct inject method was used. For these experiments, 1 μM Axl was serially diluted 1:2.5, and equal volumes of each Axl sample and 500 nM Gas6 were briefly mixed and flowed over the capture beads. Free Gas6 was detected as described and the data was fit using the KinExA Pro 3.6.2 software to obtain the association rate (kon) of the interaction. The dissociation rate (koff) was calculated as the product of the Kd and the kon.

human Gas6 = molecular target: T2, human Gas6 (Homo sapiens, UniProt Q14393); test: Kinetic Exclusion Assay (KinExA), Gas6-Axl binding, human Gas6
T2 sequence (Q14393 31-678): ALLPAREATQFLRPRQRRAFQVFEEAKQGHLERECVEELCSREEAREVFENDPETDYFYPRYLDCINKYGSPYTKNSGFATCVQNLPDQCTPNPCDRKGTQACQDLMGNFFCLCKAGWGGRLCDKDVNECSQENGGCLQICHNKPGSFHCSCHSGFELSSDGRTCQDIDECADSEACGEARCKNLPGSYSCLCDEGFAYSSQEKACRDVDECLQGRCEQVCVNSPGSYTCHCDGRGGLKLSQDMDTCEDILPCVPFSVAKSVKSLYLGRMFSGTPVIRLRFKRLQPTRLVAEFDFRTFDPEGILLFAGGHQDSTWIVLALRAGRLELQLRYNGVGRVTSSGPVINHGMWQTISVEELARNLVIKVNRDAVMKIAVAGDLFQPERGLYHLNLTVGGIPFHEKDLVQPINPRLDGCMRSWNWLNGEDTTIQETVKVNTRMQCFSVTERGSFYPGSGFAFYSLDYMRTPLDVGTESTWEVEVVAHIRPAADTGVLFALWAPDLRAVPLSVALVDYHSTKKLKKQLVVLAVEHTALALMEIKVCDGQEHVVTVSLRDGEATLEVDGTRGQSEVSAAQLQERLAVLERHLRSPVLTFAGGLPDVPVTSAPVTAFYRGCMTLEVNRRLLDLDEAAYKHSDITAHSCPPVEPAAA
Description: as §7

For “MYD1-72 Fc: Fc fusion of the second generation high-affinity Axl decoy receptor MYD1-72 (Gly32Ser, Ala72Val, Asp87Gly, Val92Ala, Gly127Arg)”, the “pAxl and pAkt levels” value [1] was “significantly reduced pAxl and pAkt levels”, the “pMer and pTyro3 levels” value [1] was “pMer and pTyro3 remained relatively unchanged” and the lung metastatic disease (4T1 luciferase cells; 0.5 mg/kg iv twice a week, three weeks) was “significantly less metastatic disease than those treated with MYD1 Fc”. The “reduction in lung metastases compared to vehicle treated mice” value (4T1 luciferase cells; MYD1-72 Fc 1 mg/kg daily, TKIs 12.5 mg/kg twice daily, ex vivo bioluminescent imaging) was 71%, the “size of primary tumors” value (4T1 luciferase cells; MYD1-72 Fc 1 mg/kg daily, TKIs 12.5 mg/kg twice daily, three weeks, vs control) was “significantly reduced the size of primary tumors” and the “γH2AX positive cells in primary tumor” value (4T1 luciferase cells; immunohistochemistry) was “significantly more γH2AX positive cells compared to all other treatment groups”. The “γH2AX positive cells in combination with hydroxyurea” value (ovarian cancer cells [2]; hydroxyurea in the presence and absence of MYD1-72 Fc) was “no additive effect was observed”, the “non-S phase cells (EdU negative) positive for γH2AX” value (ovarian cancer cells [2]; treated group) was 7% and the “γH2AX positive cells that were also in S phase/EdU positive” value (ovarian cancer cells [2]; treated group) was 85%. The “XRCC1/Chk2 and BAX/BID expression” value (wild-type cell lines) was “highly upregulated”, the phospho-RPA32 level [3] was “Elevated phospho-RPA32 level” and the “phospho-ATM and phospho-ATR” value ([3]; four time points) was “significant induction of phospho-ATM and phospho-ATR at early time points”. For the same molecule, the “phosphorylation of CHK1 and CHK2” value ([3]; four time points) was “increased phosphorylation of both CHK1 and CHK2”, the γH2AX foci (ovarian cancer cells [4]; complete media, 0.1 μg or 10 μg) was “showed no changes across treatments” and the “53BP1 and RAD51 foci” value (ovarian cancer cells [4]; serum-limited conditions) was “increased the numbers of both 53BP1 and RAD51 foci”. For the same molecule, the “number of γH2AX foci” value (ovarian cancer cells [4]; serum-limited conditions, vs untreated controls) was “significant increase in the number of γH2AX foci”, the “γH2AX staining (DNA damage) in primary tumor” value [5] was “small effect on DNA damage” and the “Axl and FLT3 phosphorylation” value [6] was “inhibited Axl and FLT3 phosphorylation”. The “reduction of tumor burden” value (OVCAR8) was 95% and the “decrease in tumor burden (by weight) vs controls” value (skov3.ip) was 51%.

B1: MYD1 Ig1: first generation high affinity Axl Ig1 variant containing four mutations that conferred improved binding to Gas6 (protein)
chain: APRGTQAEESPFVSNPGNITGARGLTGTLRCQLQVQGEPPEVHWLRDGQILELADSTQTQVPLGEDEQGDWIVASQLRITSLQLSDTGQYQCLVFLGHQTFVSQPGYVRLEGLP
modifications: left off: small tags and cut ends
B1 was tested, and the “binding to mouse Gas6” value (mouse Gas6) was “no increase in binding to mouse Gas6”, the Kd (human Gas6; Axl Ig1 variants, read-out: Kd hGas6) was 2.7 pM and the koff (human Gas6; calculated as the product of the Kd and the kon) was 4.0 10^−5 s^−1. The kon (human Gas6; direct inject method) was 1.6 10^7 M^−1 s^−1.
